{"source": "patent EP4610267A1", "about": "“CYCLIC DINUCLEOTIDES AND CONJUGATES THEREOF WITH ANTIBODIES” (priority 2024, dated 2025)", "key": {"[1]": {"system": "293T WT STING reporter cells expressing TROP2", "test": "293T WT STING reporter cells transiently expressing TROP2, luciferase", "type": "cell-based", "conditions": "free Warhead CDN, no antibody; TROP2+ 293T reporter cells", "description": "HCC1954 and 293T reporter cells were cultured as previously described. HCC1954 cells, which naturally express both Her2 and TROP2, were seeded into collagen-coated 96-well plates at a density of 0.5×10^6 cells/ml (100 µl/well) in RPMI medium supplemented with 10% FBS and Penicillin/Streptomycin. The following day, the medium was completely removed, and serial dilutions of mAb2-CDN and mAb5-CDN conjugates in medium were added to the wells. Levels of the STING-dependent cytokine IP10 (CXCL10) induction were determined in the medium using ProcartaPlex Immunoassays after 24 hours of incubation following the manufacturer's protocol and measured on a MagPix instrument. […] Nonlinear regression curve fitting was applied for EC50 value calculations. The EC50 value represents the concentration of the payload CDN 2.2 conjugated to anti-Her2 mAb2 or anti-TROP2 mAb5 that results in half-maximal levels of IP-10. […] A 50 µL mixture was transferred to white 96-well plates, and luminescence was measured using a TECAN reader.\nEC50 values were calculated from an 8-point dose-response curve using GraphPad Prism (La Jolla, USA) with nonlinear regression curve fitting. The EC50 represents the concentration of the payload CDN 2.2 conjugated to anti-Her2 mAb2 or anti-TROP2 mAb5 that results in half-maximal levels of luminescence."}, "[2]": {"system": "AH1+ CD8+ T cells", "test": "Induction of tumor specific AH1+ CD8 T cells in CT26 model (flow cytometry)", "type": "in vivo, BALB/c mice", "conditions": "blood collected on day 14, i.t. treatment", "text": "The induction of tumor specific AH1+ CD8 T cells was monitored in response to Compound 2.2 treatment. Blood immune cells were collected on day 14 and red blood cells were lysed using red blood cell lysis buffer. Immune cells were immunophenotyped using viability dye (Zombie NIR Fixable Viability Kit, BioLegend) and monoclonal antibodies: BUV395 rat anti-mouse CD19, BUV395 hamster anti-mouse CD49b, APC hamster anti-mouse CD3, BV605 rat anti-mouse CD4, BV510 rat anti-mouse CD8, (all BD Biosciences). Specific staining using MHC-I dextramer: PE labelled AH1 peptide ([…], Immudex) was performed according to the manufacturer's recommendation. Specific and control samples of unstained cells, positive control for dead cells (cells in PBS incubated for 10 min at 65 °C and further stained with a live/dead marker), fluorescence minus one (FMO) and isotype controls (ISO) were prepared. Samples were measured immediately without a fixation step in a single tube format using BD LSRFortessa flow cytometer (BD Biosciences) in 250 µl of FC buffer (PBS containing 5% FBS). Data was acquired using FACS Diva software (version 8.0.1, BD Biosciences). Debris was excluded by forward and side scatter gating followed by doublet and dead cell exclusion. […] The data were analyzed using FlowJo software (version 10, BD Biosciences) and expressed as a frequency (%) of parent population, i.e. CD3+ T cells."}, "[3]": {"molecular_target": "T1, STING AQ (Homo sapiens, UniProt Q86WV6, G230A/H232R/R293Q)", "T1 construct": "expressed in transfected cells", "T1 sequence (Q86WV6 whole entry G230A/H232R/R293Q)": "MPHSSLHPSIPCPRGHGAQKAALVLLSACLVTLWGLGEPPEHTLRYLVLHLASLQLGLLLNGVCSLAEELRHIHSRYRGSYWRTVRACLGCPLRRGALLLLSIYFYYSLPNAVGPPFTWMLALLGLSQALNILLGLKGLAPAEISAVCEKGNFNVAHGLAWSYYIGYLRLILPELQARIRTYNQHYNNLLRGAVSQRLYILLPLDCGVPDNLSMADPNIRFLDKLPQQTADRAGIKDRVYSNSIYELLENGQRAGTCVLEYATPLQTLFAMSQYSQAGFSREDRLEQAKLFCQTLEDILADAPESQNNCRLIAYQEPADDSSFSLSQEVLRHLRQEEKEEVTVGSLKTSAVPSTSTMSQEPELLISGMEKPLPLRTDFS", "test": "293T STING digitonin reporter assay (AQ haplotype)", "type": "cell-based", "conditions": "digitonin permeabilised 293T reporter cells", "description": "Digitonin Assay with 293T Reporter Cells. The generation of 293T reporter cells stably expressing different STING protein haplotypes (WT, HAQ, REF, AQ, or Q) was described previously (Novotna et al, J. Med. Chem. 2019,62, 10676). The cells were seeded at a density of 250 000 cells per cm^2 into 96 well white poly(D-lysine) coated plates in 100 µL of DMEM with high glucose supplemented with 10% heat inactivated FBS. Next day, the medium was removed, and compounds were added in 3-fold serial dilutions in a digitonin buffer containing 50 mM HEPES (pH 7.0), 100 mM KCl, 3 mM MgClz, 0.1 mM DTT, 85 mM sucrose, 0.2% (w/w) BSA, 1 mM ATP, 0.1 mM GTP, and 10 µg/mL digitonin A. After 30 min incubation at 37 °C with 5% CO2, the digitonin buffer was removed, cells were washed once with 100 µL of the cultivation medium, and 100 µL of fresh medium was added to each well. The plates with cells were further incubated for 5 h at 37 °C with 5% CO2. Thereafter, 50 µL of the medium was removed, and 30 µL of Bright-Glo Luciferase Assay System reagent was added to each well. […] Nonlinear regression curve fit with standard slope was used for EC50 value calculations. The EC50 value represents CDN concentration that gives half-maximal response of firefly luciferase in the 293T reporter assay."}}, "data": [{"smiles": "Nc1ncnc2c1ncn2[C@@H]1O[C@@H]2OCP(=O)(S)O[C@@H]3[C@H](F)[C@@H](COP(=O)(S)OC[C@H]2[C@H]1F)O[C@H]3n1cnc2c(=O)[nH]cnc21", "note": "(single isomer, unassigned) [Compound 2.2]", "values": [{"measurement": "EC50", "setting": "[1]", "value": 700, "unit": "nM"}, {"measurement": "frequency of tumor specific CD8 T cell recognizing AH1 peptide compared to the vehicle arm", "setting": "[2]", "value": "statistically significantly increased frequency"}, {"measurement": "EC50", "setting": "[3]", "value": 30, "unit": "nM"}]}]}
